Source: ChEMBL document CHEMBL1201862, “PubChem BioAssay data set” (2004)
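A five-concentration, 48-hour dose response in 96-well plates underlies each endpoint, interpolated linearly between surrounding concentrations. GI50 = concentration required for 50% inhibition of growth.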 The source made the active and inactive calls. Rule as the data show it: active = GI50 up to about 1.1 µM and inactive = higher.

Experiments:
Assay in all cases: NCI tumour cell line growth inhibition, 48 h
A498 = test system: A498
COLO 205 = test system: COLO 205
DU-145 = test system: DU-145
HCT-15 = test system: HCT-15
HT-29 = test system: HT-29
Hs-578T = test system: Hs-578T
K562 = test system: K562
KM12 = test system: KM12
MCF7 = test system: MCF7
MDA-MB-231 = test system: MDA-MB-231
NCI-H226 = test system: NCI-H226
OVCAR-5 = test system: OVCAR-5
PC-3 = test system: PC-3
RXF 393 = test system: RXF 393
SK-MEL-28 = test system: SK-MEL-28
SNB-19 = test system: SNB-19
SR = test system: SR
SW-620 = test system: SW-620
TK-10 = test system: TK-10
UO-31 = test system: UO-31

Structure (SMILES)	GI50 (A498)	GI50 (COLO 205)	GI50 (DU-145)	GI50 (HCT-15) [µM]	GI50 (HT-29)	GI50 (Hs-578T)	GI50 (K562)	GI50 (KM12)	GI50 (MCF7)	GI50 (MDA-MB-231)	GI50 (NCI-H226)	GI50 (OVCAR-5)	GI50 (PC-3)	GI50 (RXF 393)	GI50 (SK-MEL-28)	GI50 (SNB-19)	GI50 (SR)	GI50 (SW-620)	GI50 (TK-10)	GI50 (UO-31)
Cc1nc2cccc([N+](=O)[O-])c2n1CCCN(C)C	> 100 µM (inactive)	> 100 µM (inactive)	> 100 µM (inactive)	> 100	> 100 µM (inactive)	> 100 µM (inactive)	> 100 µM (inactive)	> 100 µM (inactive)	> 100 µM (inactive)	> 100 µM (inactive)	> 100 µM (inactive)	> 100 µM (inactive)	> 100 µM (inactive)	> 100 µM (inactive)	> 100 µM (inactive)	> 100 µM (inactive)	> 100 µM (inactive)	> 100 µM (inactive)	> 100 µM (inactive)	16.8 µM (inactive)
CN(CCCN1CCCC1)CCCN(C)C(=O)Cc1ccc(Cl)c(Cl)c1	14.5 µM (inactive)	17.6 µM (inactive)	43.9 µM (inactive)	26.1	3.77 µM (inactive)	5.85 µM (inactive)	5.75 µM (inactive)	18.7 µM (inactive)	16.6 µM (inactive)	12.6 µM (inactive)	26.2 µM (inactive)	29.4 µM (inactive)	22.1 µM (inactive)	12.2 µM (inactive)	1.99 µM (inactive)	26.9 µM (inactive)	11.9 µM (inactive)	18.4 µM (inactive)	16.2 µM (inactive)	4.69 µM (inactive)
CC1=NOC2(C1)C(=O)Nc1ccccc12 (stereo not given)	34.3 µM (inactive)	> 100 µM (inactive)	> 100 µM (inactive)	> 100	> 100 µM (inactive)	> 100 µM (inactive)	> 100 µM (inactive)	> 100 µM (inactive)	9.79 µM (inactive)	> 100 µM (inactive)	50.8 µM (inactive)	> 100 µM (inactive)	> 100 µM (inactive)	> 100 µM (inactive)	> 100 µM (inactive)	40.6 µM (inactive)	> 100 µM (inactive)	24.4 µM (inactive)	> 100 µM (inactive)	0.0121 µM (active)
